Patent US20080003438A1, “Heterocyclic siloxanes for use in biocidal coatings and materials” (Auburn University, priority 2002, published 2008)

How the values were obtained:
[1] = Laundry washing cycles (AATCC Test Method 61, Test 2A), chlorine loading after washing; type: physicochemical; conditions: for Average Chlorine Loading %: cotton
Protocol: Finally, a wash test was performed on swatches of cotton containing the monomer 3-triethoxysilylpropyl-5,5-dimethylhydantoin coating and the polysiloxane coating, each chlorinated and unchlorinated, for comparison purposes. Two treatment baths were prepared, one containing an 8% solution of 3-triethoxysilylpropyl-5,5-dimethylhydantoin in a 50% solution of ethanol in water, the other containing an 8% solution of siloxane polymer prepared as described above in a 66.7% solution of ethanol in water. Identical cotton swatches were soaked in the two baths for 2.5 minutes at ambient temperature, cured in air at 130° C. for 20 minutes, soaked in 1.5% liquid detergent at ambient temperature for 15 minutes, rinsed thoroughly with water, and dried in air at 50° C. for 30 minutes. Then one-half of the swatches of each type were chlorinated by soaking them in 5% CLOROX at ambient temperature for 45 minutes. These chlorinated samples were rinsed thoroughly with water and dried in air at 50° C. for 30 minutes to remove all occluded free chlorine. Iodometric/thiosulfate titrations were performed on representative samples to determine initial chlorine loadings. The average chlorine loading for the silane monomer-coated samples was 0.61%; for the siloxane polymer-coated samples, the average chlorine loading was 0.40%. Then all types of coated swatches were subjected to laundry washing cycles using AATCC Test Method 61 (Test 2A Procedure). Samples were evaluated after 5, 10, and 50 washing cycles for retention of the coatings. Those samples not chlorinated before washing were chlorinated by the procedure described above in order to assess how much chlorine could be loaded after variable numbers of washing cycles. Those chlorinated before washing were divided into two groups with half being assessed for chlorine loading without rechlorination, the other half being rechlorinated and then assessed for chlorine loading. Three observations are clearly evident from the data in Table 3. First, both the silane and the siloxane coatings are partially lost upon successive washings. Second, prechlorination reduces the rate of loss, probably due to increasing the hydrophobicity of the surface, thus reducing the rate of hydrolysis loss of the siloxane coatings. Third, the siloxane coating, which is not chlorinated to as high a level as the silane one upon initial chlorination, is lost at a slower rate than is the silane coating. For all of the coatings, at least partial biocidal efficacy would be regenerated upon rechlorination after 50 washing cycles. Most probably, a low concentration of bleach added to washing cycles should maintain biocidal activity of the cotton material for the lifetime of the material.
Finally, 100% cotton fabric swatches were tested. In this case 10 mL of the refluxed solution of polymer (the solid was not isolated) were mixed with 100 mL of a 50% ethanol/50% water solution in a beaker. The cotton swatches (7 g) were soaked in the solution for 3 minutes, then partially dried in air at ambient temperature, and then cured at 150° C. for 30 minutes. After soaking in 5% CLOROX for 20 minutes, the swatches were rinsed and dried at ambient temperature. The average chlorine loading of several swatches was determined by iodometric/thiosulfate titration to be 0.438% Cl. Then the other treated swatches were subjected to laundry washing cycles using AATCC Test Method 61 (Test 2A Procedure) followed by analytical determination of chlorine loading as a function of the number of wash cycles. After 5, 10, and 50 wash cycles the chlorine loadings averaged 0.282%, 0.279%, and 0.165%, respectively.

[2] = system: Candida albicans (ATCC # 102301); assay: Anti-yeast activity of halogen charged coated surfaces; type: cell-based
Protocol: Soft and hard surfaces were treated by exposure to solutions of 3-triethoxysilylpropyl-5,5-dimethylhydantoin prepared as described in Example 1. Challenge inocula for determination of activity directed against yeasts consisted of suspensions of Candida albicans (ATCC # 102301) harvested from PDA plates. Procedures for preparation of halogen charged surfaces, plates, and the exposure of test articles were as described in Example 11. Recovery of viable Candida was accomplished by the plate dilution method on PDA.

[3] = system: Proteus mirabilis bacteria; assay: Odor control: ammonia in head space above inoculated wood pulp pads; type: cell-based; conditions: coated, chlorinated wood pulp pads, 37° C., six hours
Protocol: 3-triethoxysilylpropyl-5,5-dimethylhydantoin, prepared as described in Example 1, was used to treat non-woven pads consisting of 1 gram of a wood pulp matrix such as is used in diapers and incontinence products. A 5% solution prepared in a distilled water and ethanol 1:1 mixture was applied to pads of the wood pulp fibers, and they were then left to soak for 5 minutes. Excess solution was vacuum suctioned from the pads, which were then dried in an oven at 90° C. for two hours. Untreated pads were also subjected to exposure to water and ethanol as controls, and were similarly dried.
Dried coated test samples and uncoated control pads were then treated by exposure to 10% sodium hypochlorite solution for 15 minutes, after which they were rinsed exhaustively with distilled water, and then vacuum dried to remove any unbound, free chlorine. Additional control pads consisted of wood pulp coated with 3-triethoxysilylpropyl-5,5-dimethylhydantoin but not exposed to the hypochlorite bleach charge. […]
All test and control pads were then exposed to an inoculum designed to generate ammonia odor as a result of bacterial action on urine, simulating events in an infant or adult human diaper. […] At the end of this period the samples were removed from the incubator, and the amount of ammonia gas in the head space above each pad was measured as an indicator of the degree of odor generated in the urine. […]

[4] = system: spores of Bacillus subtilis; assay: Anti Bacillus spore activity of chlorine charged coated surfaces; type: cell-based; conditions: 96 hours
Protocol: Soft and hard surfaces were treated by exposure to solutions of 3-triethoxysilylpropyl-5,5-dimethylhydantoin, prepared as described in Example 1, and charged with chlorine as described in Example 11. Challenge inocula for the detection of activity versus bacterial spores were prepared from suspensions of spores of Bacillus subtilis. Recovery of viable organisms from challenged surfaces was done on TSA plates, and enumeration was accomplished by the plate dilution method.

For CCO[Si](CCCN1C(=O)NC(C)(C)C1=O)(OCC)OCC [3-triethoxysilylpropyl-5,5-dimethylhydantoin], the bound chlorine retained ([1]; cotton cloth, after 50 wash cycles) was “about 34%”, the “Average Chlorine Loading %” value ([1]; chlorination before washing No, after washing Yes, 5 washing cycles) was 0.26% and the “Average Chlorine Loading %” value ([1]; chlorination before washing No, after washing Yes, 10 washing cycles) was 0.15%. For the same compound, the “Average Chlorine Loading %” value ([1]; chlorination before washing No, after washing Yes, 50 washing cycles) was 0.03%, the “Average Chlorine Loading %” value ([1]; chlorination before washing Yes, after washing No, 5 washing cycles) was 0.42% and the “Average Chlorine Loading %” value ([1]; chlorination before washing Yes, after washing No, 10 washing cycles) was 0.41%. For the same compound, the “Average Chlorine Loading %” value ([1]; chlorination before washing Yes, after washing No, 50 washing cycles) was 0.10%, the “Average Chlorine Loading %” value ([1]; chlorination before washing Yes, after washing Yes, 5 washing cycles) was 0.394% and the “Average Chlorine Loading %” value ([1]; chlorination before washing Yes, after washing Yes, 10 washing cycles) was 0.388%. The “Average Chlorine Loading %” value ([1]; chlorination before washing Yes, after washing Yes, 50 washing cycles) was 0.133%, the “reduction in viable yeasts” value ([2]; cotton surfaces, two hours of contact) was 5 logs and the “reduction in viable yeasts” value ([2]; hard surfaces, 6 hours of contact) was “up to 4 logs”. The “reduction in viable yeasts” value ([2]; polyester, 24 hours) was 4 logs, the “odor detected by the human nose” value [3] was “no detectable odor whatsoever” and the “ammonia in the head space above the pads” value ([3]; urine + urea + P. mirabilis, lower limit of detection 0.25 ppm) was under 0.25 ppm. The “reduction in viable B. subtilis spore counts” value ([4]; cellulose sponge) was over 5 logs, the “reduction in viable B. subtilis spore counts” value ([4]; cotton and polyester) was over 2 logs and the “reduction in viable B. subtilis spore counts” value ([4]; hard surfaces (marble, vinyl, porcelain)) was “up to 4 logs”.
